ChEMBL document CHEMBL4330117, “Synthesis, biological evaluation and molecular docking of benzimidazole grafted benzsulfamide-containing pyrazole ring derivatives as novel tubulin polymerization inhibitors” (Bioorg Med Chem, 2019)
Active and inactive are the calls of the source. No cut-off for these calls is given here.

Experiments:
[1] = system: A549; assay: Antiproliferative activity against human A549 cells after 24 hrs by MTT assay; type: functional, cell-based; conditions: A549, 24 h
[2] = system: HeLa; assay: Antiproliferative activity against human HeLa cells after 24 hrs by MTT assay; type: functional, cell-based
[3] = system: HepG2; assay: Antiproliferative activity against human HepG2 cells after 24 hrs by MTT assay; type: functional, cell-based; conditions: HepG2, 24 h
[4] = system: MCF7; assay: Antiproliferative activity against human MCF7 cells after 24 hrs by MTT assay; type: functional, cell-based; conditions: MCF7, 24 h
[5] = target: T1, Tubulin (Bos taurus) (UniProt Q6B856+Q862L2+Q862F3); assay: Inhibition of [3H]colchicine binding to bovine brain tubulin at 5 uM
[6] = target: T1, Tubulin (Bos taurus); assay: Inhibition of vinblastine binding to bovine brain tubulin at 5 uM
[7] = Cytotoxicity against HEK293T cells after 24 hrs by MTT assay; type: cell-based, HEK-293T; conditions: human
[8] = Cytotoxicity against mouse primary hepatocytes after 24 hrs by MTT assay; type: cell-based, Hepatocyte
[9] = system: A549; assay: Induction of apoptosis in human A549 cells assessed as viable cells at 0.1 uM after 24 hrs by Annexin V-FITC/propidium iodide staining-based flow cytometric analysis (reference value: 82.8%); type: functional; conditions: A549, 24 h, read-out: Activity
[10] = system: A549; assay: Induction of apoptosis in human A549 cells assessed as early apoptotic cells at 0.1 uM after 24 hrs by Annexin V-FITC/propidium iodide staining-based flow cytometric analysis (reference value: 2.81%); type: functional
[11] = system: A549; assay: Induction of apoptosis in human A549 cells assessed as late apoptotic cells at 0.1 uM after 24 hrs by Annexin V-FITC/propidium iodide staining-based flow cytometric analysis (reference value: 3.55%); type: functional
[12] = system: A549; assay: Induction of apoptosis in human A549 cells assessed as necrotic cells at 0.1 uM after 24 hrs by Annexin V-FITC/propidium iodide staining-based flow cytometric analysis (reference value: 10.8%); type: functional
[13] = system: A549; assay: Induction of apoptosis in human A549 cells assessed as viable cells at 0.3 uM after 24 hrs by Annexin V-FITC/propidium iodide staining-based flow cytometric analysis (reference value: 82.8%); type: functional; conditions: A549, 24 h, read-out: Activity
[14] = system: A549; assay: Induction of apoptosis in human A549 cells assessed as early apoptotic cells at 0.3 uM after 24 hrs by Annexin V-FITC/propidium iodide staining-based flow cytometric analysis (reference value: 2.81%); type: functional
[15] = system: A549; assay: Induction of apoptosis in human A549 cells assessed as late apoptotic cells at 0.3 uM after 24 hrs by Annexin V-FITC/propidium iodide staining-based flow cytometric analysis (reference value: 3.55%); type: functional
[16] = system: A549; assay: Induction of apoptosis in human A549 cells assessed as necrotic cells at 0.3 uM after 24 hrs by Annexin V-FITC/propidium iodide staining-based flow cytometric analysis (reference value: 10.8%); type: functional
[17] = system: A549; assay: Induction of apoptosis in human A549 cells assessed as viable cells at 0.5 uM after 24 hrs by Annexin V-FITC/propidium iodide staining-based flow cytometric analysis (reference value: 82.8%); type: functional; conditions: A549, 24 h, read-out: Activity
[18] = system: A549; assay: Induction of apoptosis in human A549 cells assessed as early apoptotic cells at 0.5 uM after 24 hrs by Annexin V-FITC/propidium iodide staining-based flow cytometric analysis (reference value: 2.81%); type: functional
[19] = system: A549; assay: Induction of apoptosis in human A549 cells assessed as late apoptotic cells at 0.5 uM after 24 hrs by Annexin V-FITC/propidium iodide staining-based flow cytometric analysis (reference value: 3.55%); type: functional
[20] = system: A549; assay: Induction of apoptosis in human A549 cells assessed as necrotic cells at 0.5 uM after 24 hrs by Annexin V-FITC/propidium iodide staining-based flow cytometric analysis (reference value: 10.8%); type: functional
[21] = system: A549; assay: Induction of apoptosis in human A549 cells assessed as upregulation of Bax level up to 0.5 uM after 24 hrs by Western blot analysis; type: functional, cell-based
[22] = system: A549; assay: Induction of apoptosis in human A549 cells assessed as downregulation of Bcl2 level up to 0.5 uM after 24 hrs by Western blot analysis; type: functional, cell-based
[23] = system: A549; assay: Induction of apoptosis in human A549 cells assessed as upregulation of cleaved caspase-3 level up to 0.5 uM after 24 hrs by Western blot analysis; type: functional, cell-based
[24] = system: A549; assay: Induction of apoptosis in human A549 cells assessed as upregulation of cleaved PARP level up to 0.5 uM after 24 hrs by Western blot analysis; type: functional, cell-based
[25] = system: A549; assay: Cell cycle arrest in human A549 cells assessed as accumulation at G1 phase at 0.1 uM after 24 hrs by propidium iodide/RNase A staining-based flow cytometric analysis (reference value: 71.02%); type: functional
[26] = system: A549; assay: Cell cycle arrest in human A549 cells assessed as accumulation at S phase at 0.1 uM after 24 hrs by propidium iodide/RNase A staining-based flow cytometric analysis (reference value: 11.36%); type: functional
[27] = system: A549; assay: Cell cycle arrest in human A549 cells assessed as accumulation at G2/M phase at 0.1 uM after 24 hrs by propidium iodide/RNase A staining-based flow cytometric analysis (reference value: 17.62%); type: functional
[28] = system: A549; assay: Cell cycle arrest in human A549 cells assessed as accumulation at G1 phase at 0.3 uM after 24 hrs by propidium iodide/RNase A staining-based flow cytometric analysis (reference value: 71.02%); type: functional
[29] = system: A549; assay: Cell cycle arrest in human A549 cells assessed as accumulation at S phase at 0.3 uM after 24 hrs by propidium iodide/RNase A staining-based flow cytometric analysis (reference value: 11.36%); type: functional
[30] = system: A549; assay: Cell cycle arrest in human A549 cells assessed as accumulation at G2/M phase at 0.3 uM after 24 hrs by propidium iodide/RNase A staining-based flow cytometric analysis (reference value: 17.62%); type: functional
[31] = system: A549; assay: Cell cycle arrest in human A549 cells assessed as accumulation at G1 phase at 0.5 uM after 24 hrs by propidium iodide/RNase A staining-based flow cytometric analysis (reference value: 71.02%); type: functional
[32] = system: A549; assay: Cell cycle arrest in human A549 cells assessed as accumulation at S phase at 0.5 uM after 24 hrs by propidium iodide/RNase A staining-based flow cytometric analysis (reference value: 11.36%); type: functional
[33] = system: A549; assay: Cell cycle arrest in human A549 cells assessed as accumulation at G2/M phase at 0.5 uM after 24 hrs by propidium iodide/RNase A staining-based flow cytometric analysis (reference value: 17.62%); type: functional
[34] = system: A549; assay: Cell cycle arrest in human A549 cells assessed as upregulation of cyclin B1 expression level after 24 hrs by Western blot analysis; type: functional, cell-based
[35] = system: A549; assay: Cell cycle arrest in human A549 cells assessed as downregulation of cdc25c expression level after 24 hrs by Western blot analysis; type: functional, cell-based
[36] = system: A549; assay: Cell cycle arrest in human A549 cells assessed as downregulation of Cdc2 expression level after 24 hrs by Western blot analysis; type: functional, cell-based
[37] = system: A549; assay: Cell cycle arrest in human A549 cells assessed as upregulation of p21 expression level after 24 hrs by Western blot analysis; type: functional, cell-based
[38] = target: T2, Tubulin (Homo sapiens) (UniProt P68371+Q9H4B7+P0DPH7+P68366+Q13509+Q71U36+P04350+Q3ZCM7+P07437+P68363+Q9BQE3+Q6PEY2+Q13885+Q9BVA1+Q9BUF5); assay: Induction of microtubule disruption in human A549 cells assessed as cell contraction at 0.2 uM after 24 hrs by rhodamine and DAPI staining based immunofluorescence microscopic analysis
[39] = target: T2, Tubulin (Homo sapiens); assay: Induction of microtubule disruption in human A549 cells assessed as cell rounding at 0.2 uM after 24 hrs by rhodamine and DAPI staining based immunofluorescence microscopic analysis
[40] = system: A549; assay: Induction of microtubule disruption in human A549 cells assessed as spindle microtubule disorganization accompanied by misaligned chromosomes from metaphase plate at 0.5 uM after 24 hrs by rhodamine and DAPI staining based immunofluorescence microscopic analysis; type: functional, cell-based
[41] = system: Rattus norvegicus; assay: Antitumor activity against rat hepatoma H22 cells implanted in mouse assessed as reduction in tumor volume at 3 mg/kg, ip measured after 8 to 28 days; type: functional, organism-based
[42] = Toxicity in mouse xenografted with rat H22 cells assessed as weight loss at 3 mg/kg, ip measured after 28 days; type: organism-based; conditions: in vivo, 672 h
[43] = system: A549; assay: Cell cycle arrest in human A549 cells assessed as accumulation at G2/M phase after 24 hrs by propidium iodide/RNase A staining-based flow cytometric analysis; type: functional

**Q.** Which IC50 [1] does the source give for Cc1ccc(C)c(S(=O)(=O)n2c(-c3cn(-c4ccccc4)nc3-c3ccc(C(F)(F)F)cc3)nc3ccccc32)c1 here?
**A.** Its IC50 is 150 nM.

**Q.** And the IC50 [2]?
**A.** Its IC50 is 210 nM.

**Q.** And the IC50 [3]?
**A.** The IC50 was 330 nM.

**Q.** And the IC50 [4]?
**A.** The IC50 was 170 nM.

**Q.** And the inhibition [5]?
**A.** Its inhibition is 91%.

**Q.** What about the inhibition [6] of the same compound?
**A.** Its inhibition is 0.06%.

**Q.** What about the CC50 at 24 h [7] of the same compound?
**A.** The CC50 at 24 h was 223000 nM.

**Q.** And the CC50 at 24 h [8]?
**A.** The CC50 at 24 h was 132000 nM.

**Q.** What about the viability at 0.1 µM [9] of the same compound?
**A.** Its viability at 0.1 µM is 78.6%.

**Q.** And the Activity [10]?
**A.** The Activity was 3.08%.

**Q.** And the Activity [11]?
**A.** The Activity was 4.9%.

**Q.** What about the Activity [12] of the same compound?
**A.** Its Activity is 13.4%.

**Q.** What about the viability at 0.3 µM [13] of the same compound?
**A.** The viability at 0.3 µM was 71%.

**Q.** And the Activity [14]?
**A.** Its Activity is 6.69%.

**Q.** And the Activity [15]?
**A.** Its Activity is 5.95%.

**Q.** What about the Activity [16] of the same compound?
**A.** The Activity was 16.3%.

**Q.** What about the viability at 0.5 µM [17] of the same compound?
**A.** Its viability at 0.5 µM is 62.9%.

**Q.** And the Activity [18]?
**A.** Its Activity is 10.1%.

**Q.** And the Activity [19]?
**A.** The Activity was 8.74%.

**Q.** What about the Activity [20] of the same compound?
**A.** Its Activity is 18.2%.

**Q.** What about the Activity [21] of the same compound?
**A.** The Activity was “Active”.

**Q.** What about the Activity [22] of the same compound?
**A.** The Activity was “Active”.

**Q.** And the Activity [23]?
**A.** The Activity was “Active”.

**Q.** And the Activity [24]?
**A.** The Activity was “Active”.

**Q.** What about the Activity [25] of the same compound?
**A.** Its Activity is 62.95%.

**Q.** And the Activity [26]?
**A.** The Activity was 14.42%.

**Q.** What about the Activity [27] of the same compound?
**A.** The Activity was 22.63%.

**Q.** And the Activity [28]?
**A.** The Activity was 53.31%.

**Q.** And the Activity [29]?
**A.** Its Activity is 18.56%.

**Q.** And the Activity [30]?
**A.** Its Activity is 28.13%.

**Q.** What about the Activity [31] of the same compound?
**A.** Its Activity is 47.63%.

**Q.** And the Activity [32]?
**A.** The Activity was 12.11%.

**Q.** What about the Activity [33] of the same compound?
**A.** The Activity was 40.26%.

**Q.** What about the Activity [34] of the same compound?
**A.** Its Activity is “Dose-dependent effect”.

**Q.** And the Activity [35]?
**A.** The Activity was “Dose-dependent effect”.

**Q.** What about the Activity [36] of the same compound?
**A.** The Activity was “Dose-dependent effect”.

**Q.** And the Activity [37]?
**A.** Its Activity is “Dose-dependent effect”.

**Q.** And the Activity [38]?
**A.** Its Activity is “Active”.

**Q.** And the Activity [39]?
**A.** Its Activity is “Active”.

**Q.** And the Activity [40]?
**A.** The Activity was “Active”.

**Q.** What about the Activity [41] of the same compound?
**A.** Its Activity is “Active”.

**Q.** And the Activity [42]?
**A.** The Activity was “Non-Toxic”.

**Q.** What about the Activity [43] of the same compound?
**A.** Its Activity is “Dose-dependent effect”.
